Test results as given in patent US20210022339A1, “USE OF DELAYED DORMANT APPLICATIONS OF HOMOBRASSINOLIDE ON GRAPES TO ENHANCE BUD BREAK” (priority 2019, published 2021).
“Also recorded” adds a separate entry of the source. Read-outs that look alike come from different tables or passages of the source.

Tests used:
Thompson Seedless Grapes [1] = test: Percentage bud break on fruiting canes, vineyard trial; format: in vivo, Vitis; conditions: for bud break on fruiting canes, efficacy: compared to the untreated check
From the text: (§1) A portion of an established commercial vineyard was used for the study. The HBR (FIG. 1) treatments were replicated down a single row and arranged in sets of 3 vines per plot. Plots were flagged with colored ribbon to identify the treatments and there were 4 replicates each. Spray applications were made when the vines were still dormant on Day 0 (Feb. 12, 2019) or during the delayed dormant period, when buds were swollen or at eraser stage, on Day 24 (Mar. 8, 2019)). […] Crop injury was rated using a scale of 0-10, where 0=no injury and 10=100% of tree injured. Percentage bud break was evaluated by counting numbers of shoots from 30 nodes on fruiting canes from trunk to trunk and 5 renewal spurs were chosen non-systematically on Day 34 (Mar. 18, 2019) and Day 41 (Mar. 25, 2019).
Statistical differences were highly significant and variability in the data was low. Having waited until approximately 55 chill portions (a quantification of the aggregate low temperature exposure needed for a crop to break dormancy), the dormant sprays allowed both the Hydrogen Cyanamide (Dormex®) treated and untreated vines to accumulate the maximum chilling. […] Uniformity was enhanced by both Dormex® and 5 ppm ai HBR applied as a dormant spray. Variability was lowest in the untreated check by 41 DAA even though bud break had not reached 90%. It is not unusual for bud break to exceed 100% because secondary shoots were stimulated by the effects of overcoming apical dominance by both effective rest breaking and the accumulation of maximum chilling by untreated vines. FIGS. 6 and 7.

Thompson Seedless Grapes [2] = test: Percentage bud break on renewal spurs, vineyard trial; format: in vivo, Vitis; conditions: by 41 DAA
From the text: as §1
However, the results were statistically significant between the rest breaking treatments as a group compared to the untreated check at both evaluation intervals. […] It appeared that spur bud break had peaked by 34 DAA because by 41 DAA, percentages were mostly the same. Only the untreated check continued to break buds, which remained approximately 15% lower than the rest breaking treatments as a group.

Thompson Seedless Grapes [3] = test: Crop injury / phytotoxicity observation; set-up: species or system Vitis; conditions: in vivo
From the text: as §1

Thompson Seedless Grapes [4] = test: Number of shoots (overcoming apical dominance); format: in vivo, Vitis
From the text: as §1

Thompson Seedless Grapes [5] = test: Fruit growth uniformity; set-up: species or system Vitis; conditions: in vivo
laboratory animals = conditions: cited from earlier work; for toxicity: in vivo
vines = conditions: cited from earlier work
nearby crops = conditions: in vivo; cited from earlier work
Thompson Seedless Grapes [6] = conditions: grapes and other fruit crops; cited from earlier work
[7] = label for 0.1% HBR; SDS from Alzchem; cited from earlier work

CC[C@@H](C(C)C)C(O)C(O)[C@@H](C)[C@H]1CC[C@H]2[C@@H]3COC(=O)[C@H]4C[C@H](O)[C@H](O)C[C@]4(C)[C@H]3CC[C@]12C (stereo in doubt) [HBR, homobrassinolide]
bud break on fruiting canes, efficacy (Thompson Seedless Grapes [1]; 1 ppm ai applied at early bud swell): as effective as the standard rate of Dormex | bud break on fruiting canes, efficacy (Thompson Seedless Grapes [1]; 2 ppm ai applied at early bud swell): as effective as the standard rate of Dormex | bud break uniformity (Thompson Seedless Grapes [1]; 5 ppm ai applied as a dormant spray): enhanced | bud break on fruiting canes, effects (Thompson Seedless Grapes [1]; 5 ppm applied delayed dormant, 34 DAA): statistically equivalent to the untreated check | active concentration range (Thompson Seedless Grapes [1]; in vivo): nano molar to pico molar range | spur bud break, effects (Thompson Seedless Grapes [2]; 2 ppm ai applied at bud swell): equivalent to the untreated check | crop injury (Thompson Seedless Grapes [3]): without crop injury | phytotoxicity (Thompson Seedless Grapes [3]): non-phytotoxic | shoots compared to control (Thompson Seedless Grapes [4]; 1 ppm ai): increased shoots compared to control | shoots compared to control (Thompson Seedless Grapes [4]; 2 ppm ai): increased shoots compared to control | shoots compared to control (Thompson Seedless Grapes [4]; 5 ppm ai): increased shoots compared to control | shoots compared to the standard treatment (Thompson Seedless Grapes [4]; both 1 ppm ai and 1 ppm ai treatments (so in the source)): comparable to the Hydrogen Cyanamide standard treatment | number of shoots (Thompson Seedless Grapes [4]; either dormant or delayed dormant spray applications): increased number of shoots | fruit growth uniformity (Thompson Seedless Grapes [5]): enhance fruit growth uniformity | toxicity (laboratory animals): non-toxic mode of action | lowering of the fruitability of vines (vines; in vivo): no such effect | effect on nearby crops (nearby crops): no evidence that HBR has harmful effects on nearby crops

N#CN [Dormex, Hydrogen Cyanamide, reference compound]
bud break uniformity (Thompson Seedless Grapes [1]; Dormex standard rate, dormant spray): enhanced | amount needed to approach the effect of HBR, times (Thompson Seedless Grapes [1]; in vivo): approximately 20,000 times | spur bud break (Thompson Seedless Grapes [2]): < 100% | phytotoxicity (Thompson Seedless Grapes [6]): can be phytotoxic | adverse effects in laboratory animals (laboratory animals; California EPA Department of Pesticide Regulation study): causes adverse effects in the liver, thyroid, kidney, ovaries, and testes | toxicity (laboratory animals): reported toxicity due to acute exposure; also recorded: can be acutely toxic when misused | biodegradability [7]: not readily biodegradable | lowering of the fruitability of vines (vines; repeated use over the years): 20-30 % per year | effect on nearby crops (nearby crops): can damage nearby crops
